Laboratory results reported in ChEMBL document CHEMBL1201862, “PubChem BioAssay data set” (2004).
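Compound exposure: 48 hours, 5 concentrations, 96-well plates. GI50 marks 50% less growth.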 Active and inactive are the calls of the source. No stated cut-off is given here; in the data, active = GI50 up to about 1.1 µM and inactive = higher.

What was measured:
Experiment in all cases: inhibition of tumour cell growth, NCI panel, 48 h
[1] = system: ACHN
[2] = system: BT-549
[3] = system: COLO 205
[4] = system: HCT-116
[5] = system: HCT-15
[6] = system: HL-60
[7] = system: HT-29
[8] = system: M14
[9] = system: MOLT-4
[10] = system: NCI-H23
[11] = system: OVCAR-3
[12] = system: RXF 393
[13] = system: SF-295
[14] = system: SK-MEL-5
[15] = system: SK-OV-3
[16] = system: SR
[17] = system: TK-10
[18] = system: U-251
[19] = system: UO-31

COC(=O)C1=CO[C@@H](OC2OC(CO)C(O)C(O)C2O)[C@H]2[C@@H](C)[C@@H](O)[C@@H](O)[C@@H]12 (some centres undefined)
GI50 [1]: > 100 µM (inactive)
GI50 [2]: > 100 µM (inactive)
GI50 [3]: > 100 µM (inactive)
GI50 [4]: > 100 µM (inactive)
GI50 [5]: > 100 µM
GI50 [6]: > 100 µM (inactive)
GI50 [7]: > 100 µM (inactive)
GI50 [8]: > 100 µM (inactive)
GI50 [9]: > 100 µM (inactive)
GI50 [10]: > 100 µM (inactive)
GI50 [11]: > 100 µM (inactive)
GI50 [12]: > 100 µM (inactive)
GI50 [13]: > 100 µM (inactive)
GI50 [14]: > 100 µM (inactive)
GI50 [15]: > 100 µM (inactive)
GI50 [16]: 36.6 µM (inactive)
GI50 [17]: > 100 µM (inactive)
GI50 [18]: > 100 µM (inactive)
GI50 [19]: > 100 µM (inactive)

COc1ccc2nc3c(c(N)c2c1)C1CCC3C1(C)C (centres undefined)
GI50 [1]: > 100 µM (inactive)
GI50 [2]: > 100 µM (inactive)
GI50 [3]: 17.1 µM (inactive)
GI50 [4]: 32.4 µM (inactive)
GI50 [5]: 51.1 µM
GI50 [6]: 18.5 µM (inactive)
GI50 [7]: 23.8 µM (inactive)
GI50 [8]: 17.8 µM (inactive)
GI50 [9]: 46.9 µM (inactive)
GI50 [10]: 54.8 µM (inactive)
GI50 [11]: 31.9 µM (inactive)
GI50 [12]: 23 µM (inactive)
GI50 [13]: 20.6 µM (inactive)
GI50 [14]: 12.5 µM (inactive)
GI50 [15]: 28.1 µM (inactive)
GI50 [16]: 34.8 µM (inactive)
GI50 [17]: 32.7 µM (inactive)
GI50 [18]: 38.5 µM (inactive)
GI50 [19]: 47.4 µM (inactive)

CCCCOCCOCCOC1=C(Cl)C(=O)c2c(O)ccc(O)c2C1=O
GI50 [1]: 1.59 µM (inactive)
GI50 [2]: 1.39 µM (inactive)
GI50 [3]: 0.259 µM (active)
GI50 [4]: 0.401 µM (active)
GI50 [5]: 0.388 µM
GI50 [6]: 0.144 µM (active)
GI50 [7]: 0.484 µM (active)
GI50 [8]: 0.161 µM (active)
GI50 [9]: 0.0138 µM (active)
GI50 [10]: 0.984 µM (active)
GI50 [11]: 0.877 µM (active)
GI50 [12]: 0.809 µM (active)
GI50 [13]: 1.73 µM (inactive)
GI50 [14]: 0.565 µM (active)
GI50 [15]: 4.25 µM (inactive)
GI50 [16]: < 0.01 µM (active)
GI50 [17]: 1.32 µM (inactive)
GI50 [18]: 1.67 µM (inactive)
GI50 [19]: 1.35 µM (inactive)

Cc1ccccc1C(=O)C#Cc1cn(C2CC(O)C(CO)O2)c(=O)[nH]c1=O (centres undefined)
GI50 [1]: > 100 µM (inactive)
GI50 [2]: > 100 µM (inactive)
GI50 [3]: > 100 µM (inactive)
GI50 [4]: > 100 µM (inactive)
GI50 [5]: > 100 µM
GI50 [6]: > 100 µM (inactive)
GI50 [7]: > 100 µM (inactive)
GI50 [8]: > 100 µM (inactive)
GI50 [9]: 16.1 µM (inactive)
GI50 [10]: > 100 µM (inactive)
GI50 [11]: > 100 µM (inactive)
GI50 [12]: > 100 µM (inactive)
GI50 [13]: > 100 µM (inactive)
GI50 [14]: > 100 µM (inactive)
GI50 [15]: > 100 µM (inactive)
GI50 [16]: 27.9 µM (inactive)
GI50 [17]: > 100 µM (inactive)
GI50 [18]: > 100 µM (inactive)
GI50 [19]: > 100 µM (inactive)

COc1cc2c(cc1O)C(Cc1ccc(OCc3ccccc3)c(OCc3ccccc3)c1)N(C(=O)NCCc1ccccc1)CC2 (centres undefined)
GI50 [1]: > 100 µM (inactive)
GI50 [2]: > 100 µM (inactive)
GI50 [3]: > 100 µM (inactive)
GI50 [4]: 45.1 µM (inactive)
GI50 [5]: > 100 µM
GI50 [6]: 37.3 µM (inactive)
GI50 [7]: > 100 µM (inactive)
GI50 [8]: > 100 µM (inactive)
GI50 [9]: > 100 µM (inactive)
GI50 [10]: > 100 µM (inactive)
GI50 [11]: > 100 µM (inactive)
GI50 [12]: > 100 µM (inactive)
GI50 [13]: > 100 µM (inactive)
GI50 [14]: 33 µM (inactive)
GI50 [15]: > 100 µM (inactive)
GI50 [16]: 37.3 µM (inactive)
GI50 [17]: > 100 µM (inactive)
GI50 [18]: > 100 µM (inactive)
GI50 [19]: 69 µM (inactive)

Oc1ccc2ccccc2c1/N=N/c1ccc(/N=N/c2ccccc2)cc1
GI50 [1]: > 100 µM (inactive)
GI50 [2]: > 100 µM (inactive)
GI50 [3]: > 100 µM (inactive)
GI50 [4]: 93.1 µM (inactive)
GI50 [5]: > 100 µM
GI50 [6]: 0.43 µM (active)
GI50 [7]: > 100 µM (inactive)
GI50 [8]: > 100 µM (inactive)
GI50 [9]: > 100 µM (inactive)
GI50 [10]: > 100 µM (inactive)
GI50 [11]: > 100 µM (inactive)
GI50 [12]: > 100 µM (inactive)
GI50 [13]: > 100 µM (inactive)
GI50 [14]: > 100 µM (inactive)
GI50 [15]: > 100 µM (inactive)
GI50 [16]: 23.6 µM (inactive)
GI50 [17]: > 100 µM (inactive)
GI50 [18]: 46.3 µM (inactive)
GI50 [19]: 59 µM (inactive)

Clc1cccc(-c2sc(-c3cccs3)cc2Cc2cccs2)c1
GI50 [1]: > 10 µM (inactive)
GI50 [2]: > 10 µM (inactive)
GI50 [3]: > 10 µM (inactive)
GI50 [4]: > 10 µM (inactive)
GI50 [5]: 2.79 µM
GI50 [6]: > 10 µM (inactive)
GI50 [7]: > 10 µM (inactive)
GI50 [8]: > 10 µM (inactive)
GI50 [9]: > 10 µM (inactive)
GI50 [10]: > 10 µM (inactive)
GI50 [12]: > 10 µM (inactive)
GI50 [13]: > 10 µM (inactive)
GI50 [14]: > 10 µM (inactive)
GI50 [15]: > 10 µM (inactive)
GI50 [16]: > 10 µM (inactive)
GI50 [17]: > 10 µM (inactive)
GI50 [19]: > 10 µM (inactive)

O=[N+]([O-])C(C=C(n1nnc2ccccc21)n1nnc2ccccc21)=C(n1nnc2ccccc21)n1nnc2ccccc21
GI50 [1]: > 100 µM (inactive)
GI50 [2]: > 100 µM (inactive)
GI50 [3]: > 100 µM (inactive)
GI50 [4]: 46.2 µM (inactive)
GI50 [5]: > 100 µM
GI50 [6]: 41 µM (inactive)
GI50 [7]: > 100 µM (inactive)
GI50 [8]: > 100 µM (inactive)
GI50 [9]: 26.2 µM (inactive)
GI50 [10]: > 100 µM (inactive)
GI50 [11]: > 100 µM (inactive)
GI50 [12]: > 100 µM (inactive)
GI50 [13]: > 100 µM (inactive)
GI50 [15]: > 100 µM (inactive)
GI50 [16]: 23 µM (inactive)
GI50 [17]: > 100 µM (inactive)
GI50 [18]: > 100 µM (inactive)
GI50 [19]: 22.1 µM (inactive)
